Assay results from patent publication US9611249B2, “1H-indazole-3-carboxamide compounds as glycogen synthase kinase 3 beta inhibitors” (AZIENDE CHIMICHE RIUNITE ANGELINI FRANCESCO A.C.R.A.F. …, priority 2012, dated 2017).

Key:
Assay type in all cases: biochemical
smMLCK (h) (MYLK) = smMLCK (h) (MYLK) (Homo sapiens (Human), UniProt Q15746); assay: Kinase selectivity panel: smMLCK (h) (MYLK); conditions: 10 μM in duplicate, read-out: % inhibition of control values
Experimental: (§1) (a) Compounds 1 and 2 were tested against a panel of 60 kinases in order to assess their selectivity. The assays were chosen taking into consideration the diversity of assay families.
(§2) Tested kinases were representative of following kinase sub-families: • protein-serine/threonine kinases; • protein-tyrosine kinases; • other kinases; and • atypical kinases.
(§3) Human recombinant kinases were incubated in the presence of specific peptide substrates plus ATP for different times (10, 15, 30, 60 or 90 minutes) at 22° C. Phosphorylated substrate was detected by LANCE or HTRF technology (CISBIO, MA, USA). The compounds were tested at 10 μM in duplicate.
(§4) The results are expressed as a percentage of inhibition of control specific activity obtained in the presence of the test compounds and are reported in the following Table 5.
(§5) (b) Compounds 3, 8, 29 and 31 were tested against the same panel of 60 kinases under the same conditions described above for compounds 1 and 2.
(§6) The results are expressed as a percent of inhibition of control specific activity obtained in the presence of the test compounds and are reported in the following Table 6.

NEK1 (h) = NEK1 (h) (Homo sapiens (Human), UniProt Q96PY6); assay: Kinase selectivity panel: NEK1 (h); conditions: 10 μM in duplicate, read-out: % inhibition of control values
Experimental: as §1, §2, §3, §4, §5, §6

ERK2 (h) (P42mapk) = ERK2 (h) (P42mapk) (Homo sapiens (Human), UniProt P28482); assay: Kinase selectivity panel: ERK2 (h) (P42mapk); conditions: 10 μM in duplicate, read-out: % inhibition of control values
Experimental: as §1, §2, §3, §4, §5, §6

human GSK-3β = human GSK-3β (Homo sapiens (Human), UniProt P49841); assay: Activity on human GSK-3β, LANCE substrate phosphorylation assay; conditions: for inhibition at 10 µM: in duplicate, first screening assay; for IC50: compounds 1 to 15, LANCE assay, five concentrations 100 μM to 10 nM
Chain of human GSK-3β (P49841 whole entry): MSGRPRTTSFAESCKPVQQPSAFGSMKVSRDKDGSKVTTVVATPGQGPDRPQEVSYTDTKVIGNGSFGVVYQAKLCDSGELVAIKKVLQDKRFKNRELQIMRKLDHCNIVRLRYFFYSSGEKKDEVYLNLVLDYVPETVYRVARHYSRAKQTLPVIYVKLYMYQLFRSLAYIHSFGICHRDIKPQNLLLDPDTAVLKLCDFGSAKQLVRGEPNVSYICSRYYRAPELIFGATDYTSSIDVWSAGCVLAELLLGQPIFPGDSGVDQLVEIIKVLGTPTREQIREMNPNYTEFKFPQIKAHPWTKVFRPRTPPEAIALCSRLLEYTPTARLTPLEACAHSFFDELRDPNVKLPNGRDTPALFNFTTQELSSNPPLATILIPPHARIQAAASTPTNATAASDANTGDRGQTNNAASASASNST
Experimental: Activity on human GSK-3β was assessed using the following methods (according to Meijer et al., Chem. Biol., 2003-10:1255-1266).
In a first screening assay, compounds were tested in duplicate at a concentration of 10 μM.
Human recombinant enzyme GSK-3β was incubated for 90 minutes at 22° C. in the presence of compounds or vehicle in a reaction buffer containing ATP plus 100 nM unphosphorylated specific substrate peptide (Ulight-[…] K-amide). Substrate phosphorylation was measured by LANCE technology (PerkinElmer, Conn., USA).
In a second assay, the same compounds were assayed at five concentrations ranging from 100 μM to 10 nM with ten-fold dilutions in duplicate.
The IC50 values (concentration causing a half maximal inhibition of control specific activity), reported in table 4, were determined by non-linear regression analysis of the inhibition curves generated with mean replicate values using Hill equation curve fitting.

EphB2 kinase (h) = EphB2 kinase (h) (Homo sapiens (Human), UniProt P29323); assay: Kinase selectivity panel: EphB2 kinase (h); conditions: 10 μM in duplicate, read-out: % inhibition of control values
Experimental: as §1, §2, §3, §4, §5, §6

RSK2 (h) = RSK2 (h) (Homo sapiens (Human), UniProt P51812); assay: Kinase selectivity panel: RSK2 (h); conditions: 10 μM in duplicate, read-out: % inhibition of control values
Experimental: as §1, §2, §3, §4, §5, §6

PKA (h) = PKA (h) (Homo sapiens (Human), UniProt P17612); assay: Kinase selectivity panel: PKA (h); conditions: 10 μM in duplicate, read-out: % inhibition of control values
Experimental: as §1, §2, §3, §4, §5, §6

IRAK4 (h) = IRAK4 (h) (Homo sapiens (Human), UniProt Q9NWZ3); assay: Kinase selectivity panel: IRAK4 (h); conditions: 10 μM in duplicate, read-out: % inhibition of control values
Chain of IRAK4 (h) (Q9NWZ3 whole entry): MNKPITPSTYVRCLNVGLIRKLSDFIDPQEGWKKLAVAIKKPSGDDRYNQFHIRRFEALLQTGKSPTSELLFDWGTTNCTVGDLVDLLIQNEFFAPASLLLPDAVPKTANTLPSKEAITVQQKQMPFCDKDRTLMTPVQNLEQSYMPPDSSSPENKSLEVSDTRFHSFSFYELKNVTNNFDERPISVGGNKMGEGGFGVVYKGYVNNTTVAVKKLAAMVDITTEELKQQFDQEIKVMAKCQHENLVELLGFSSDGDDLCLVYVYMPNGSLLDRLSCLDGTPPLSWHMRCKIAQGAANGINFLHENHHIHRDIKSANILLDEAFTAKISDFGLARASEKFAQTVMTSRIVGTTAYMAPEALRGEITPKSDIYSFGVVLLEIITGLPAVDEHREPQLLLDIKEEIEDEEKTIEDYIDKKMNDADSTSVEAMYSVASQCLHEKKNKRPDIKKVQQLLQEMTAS
Experimental: as §1, §2, §3, §4, §5, §6

TRKA (h) = TRKA (h) (Homo sapiens (Human), UniProt P04629); assay: Kinase selectivity panel: TRKA (h); conditions: 10 μM in duplicate, read-out: % inhibition of control values
Experimental: as §1, §2, §3, §4, §5, §6

DCAMKL1 (h) = DCAMKL1 (h) (Homo sapiens (Human), UniProt O15075); assay: Kinase selectivity panel: DCAMKL1 (h); conditions: 10 μM in duplicate, read-out: % inhibition of control values
Experimental: as §1, §2, §3, §4, §5, §6

MEK1/MAP2K1 (h) = MEK1/MAP2K1 (h) (Homo sapiens (Human), UniProt Q02750); assay: Kinase selectivity panel: MEK1/MAP2K1 (h); conditions: 10 μM in duplicate, read-out: % inhibition of control values
Experimental: as §1, §2, §3, §4, §5, §6

ERK1 (h) = ERK1 (h) (Homo sapiens (Human), UniProt P27361); assay: Kinase selectivity panel: ERK1 (h); conditions: 10 μM in duplicate, read-out: % inhibition of control values
Experimental: as §1, §2, §3, §4, §5, §6

c-Met kinase (h) = c-Met kinase (h) (Homo sapiens (Human), UniProt P08581); assay: Kinase selectivity panel: c-Met kinase (h); conditions: 10 μM in duplicate, read-out: % inhibition of control values
Experimental: as §1, §2, §3, §4, §5, §6

TAOK2 (TAO1) (h) = TAOK2 (TAO1) (h) (Homo sapiens (Human), UniProt Q9UL54); assay: Kinase selectivity panel: TAOK2 (TAO1) (h); conditions: 10 μM in duplicate, read-out: % inhibition of control values
Chain of TAOK2 (TAO1) (h) (Q9UL54 whole entry): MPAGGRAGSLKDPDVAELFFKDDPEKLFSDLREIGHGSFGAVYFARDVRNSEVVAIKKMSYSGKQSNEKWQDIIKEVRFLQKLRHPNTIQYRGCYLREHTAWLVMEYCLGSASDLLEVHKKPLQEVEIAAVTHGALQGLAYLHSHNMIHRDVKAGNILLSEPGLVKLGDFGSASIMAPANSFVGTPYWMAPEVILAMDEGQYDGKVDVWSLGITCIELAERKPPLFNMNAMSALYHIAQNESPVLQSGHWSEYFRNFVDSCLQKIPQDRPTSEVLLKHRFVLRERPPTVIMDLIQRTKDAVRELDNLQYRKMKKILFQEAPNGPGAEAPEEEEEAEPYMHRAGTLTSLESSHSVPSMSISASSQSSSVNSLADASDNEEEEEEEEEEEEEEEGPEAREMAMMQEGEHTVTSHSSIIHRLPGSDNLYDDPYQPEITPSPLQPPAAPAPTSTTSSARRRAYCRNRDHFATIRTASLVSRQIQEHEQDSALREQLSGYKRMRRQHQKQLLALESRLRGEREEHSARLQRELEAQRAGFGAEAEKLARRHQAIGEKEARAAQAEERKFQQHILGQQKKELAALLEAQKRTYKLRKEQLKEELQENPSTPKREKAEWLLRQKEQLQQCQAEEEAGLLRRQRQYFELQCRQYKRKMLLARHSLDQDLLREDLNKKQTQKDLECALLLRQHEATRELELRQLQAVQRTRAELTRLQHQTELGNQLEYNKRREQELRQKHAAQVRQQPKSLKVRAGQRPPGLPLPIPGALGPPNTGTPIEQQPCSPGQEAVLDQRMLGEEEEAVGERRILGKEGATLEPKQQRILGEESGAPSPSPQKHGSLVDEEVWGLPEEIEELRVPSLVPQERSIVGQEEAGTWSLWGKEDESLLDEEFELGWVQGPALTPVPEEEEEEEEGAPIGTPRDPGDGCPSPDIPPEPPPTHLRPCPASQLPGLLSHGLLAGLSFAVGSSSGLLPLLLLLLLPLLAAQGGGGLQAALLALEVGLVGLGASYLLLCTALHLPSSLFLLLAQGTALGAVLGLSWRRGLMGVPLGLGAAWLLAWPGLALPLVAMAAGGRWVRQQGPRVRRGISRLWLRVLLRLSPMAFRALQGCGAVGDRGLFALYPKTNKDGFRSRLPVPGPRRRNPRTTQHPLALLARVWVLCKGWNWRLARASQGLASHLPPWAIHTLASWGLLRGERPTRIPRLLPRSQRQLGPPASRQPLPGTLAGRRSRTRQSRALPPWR
Experimental: as §1, §2, §3, §4, §5, §6

Abl kinase (h) = Abl kinase (h) (Homo sapiens (Human), UniProt P00519); assay: Kinase selectivity panel: Abl kinase (h); conditions: 10 μM in duplicate, read-out: % inhibition of control values
Experimental: as §1, §2, §3, §4, §5, §6

AurA/Aur2 kinase (h) = AurA/Aur2 kinase (h) (Homo sapiens (Human), UniProt O14965); assay: Kinase selectivity panel: AurA/Aur2 kinase (h); conditions: 10 μM in duplicate, read-out: % inhibition of control values
Chain of AurA/Aur2 kinase (h) (O14965 whole entry): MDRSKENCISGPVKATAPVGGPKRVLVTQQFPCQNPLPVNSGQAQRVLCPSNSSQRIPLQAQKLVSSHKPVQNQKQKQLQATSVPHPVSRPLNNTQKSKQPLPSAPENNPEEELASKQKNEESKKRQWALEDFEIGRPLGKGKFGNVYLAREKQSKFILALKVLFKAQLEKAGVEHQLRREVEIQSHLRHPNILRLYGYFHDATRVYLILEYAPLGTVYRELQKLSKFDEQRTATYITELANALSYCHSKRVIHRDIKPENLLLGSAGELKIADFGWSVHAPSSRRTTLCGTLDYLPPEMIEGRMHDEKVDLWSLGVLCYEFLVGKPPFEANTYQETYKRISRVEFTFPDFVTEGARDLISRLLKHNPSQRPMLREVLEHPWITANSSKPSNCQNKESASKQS
Experimental: as §1, §2, §3, §4, §5, §6

p38gamma kinase (h) = p38gamma kinase (h) (Homo sapiens (Human), UniProt P53778); assay: Kinase selectivity panel: p38gamma kinase (h); conditions: 10 μM in duplicate, read-out: % inhibition of control values
Experimental: as §1, §2, §3, §4, §5, §6

mTOR kinase (h) (FRAP1) = mTOR kinase (h) (FRAP1) (Homo sapiens (Human), UniProt P42345); assay: Kinase selectivity panel: mTOR kinase (h) (FRAP1); conditions: 10 μM in duplicate, read-out: % inhibition of control values
Experimental: as §1, §2, §3, §4, §5, §6

GRK3/BARK2 (h) (ADRBK2) = GRK3/BARK2 (h) (ADRBK2) (Homo sapiens (Human), UniProt P35626); assay: Kinase selectivity panel: GRK3/BARK2 (h) (ADRBK2); conditions: 10 μM in duplicate, read-out: % inhibition of control values
Experimental: as §1, §2, §3, §4, §5, §6

Akt1/PKBalpha (h) = Akt1/PKBalpha (h) (Homo sapiens (Human), UniProt P31749); assay: Kinase selectivity panel: Akt1/PKBalpha (h); conditions: 10 μM in duplicate, read-out: % inhibition of control values
Experimental: as §1, §2, §3, §4, §5, §6

PKCalpha (h) = PKCalpha (h) (Homo sapiens (Human), UniProt P17252); assay: Kinase selectivity panel: PKCalpha (h); conditions: 10 μM in duplicate, read-out: % inhibition of control values
Experimental: as §1, §2, §3, §4, §5, §6

CK1alpha (h) = CK1alpha (h) (Homo sapiens (Human), UniProt P48729); assay: Kinase selectivity panel: CK1alpha (h); conditions: 10 μM in duplicate, read-out: % inhibition of control values
Chain of CK1alpha (h) (P48729 whole entry): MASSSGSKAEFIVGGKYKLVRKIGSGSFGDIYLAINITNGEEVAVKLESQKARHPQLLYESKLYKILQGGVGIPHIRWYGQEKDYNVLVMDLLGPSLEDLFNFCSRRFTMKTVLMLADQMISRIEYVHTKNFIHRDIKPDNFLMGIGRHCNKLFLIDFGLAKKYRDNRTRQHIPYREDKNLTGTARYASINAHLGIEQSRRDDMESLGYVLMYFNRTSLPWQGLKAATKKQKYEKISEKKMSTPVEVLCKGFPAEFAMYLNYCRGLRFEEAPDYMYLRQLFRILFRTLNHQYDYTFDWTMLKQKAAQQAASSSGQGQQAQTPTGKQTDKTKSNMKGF
Experimental: as §1, §2, §3, §4, §5, §6

Pim1 kinase (h) = Pim1 kinase (h) (Homo sapiens (Human), UniProt P11309); assay: Kinase selectivity panel: Pim1 kinase (h); conditions: 10 μM in duplicate, read-out: % inhibition of control values
Chain of Pim1 kinase (h) (P11309 whole entry): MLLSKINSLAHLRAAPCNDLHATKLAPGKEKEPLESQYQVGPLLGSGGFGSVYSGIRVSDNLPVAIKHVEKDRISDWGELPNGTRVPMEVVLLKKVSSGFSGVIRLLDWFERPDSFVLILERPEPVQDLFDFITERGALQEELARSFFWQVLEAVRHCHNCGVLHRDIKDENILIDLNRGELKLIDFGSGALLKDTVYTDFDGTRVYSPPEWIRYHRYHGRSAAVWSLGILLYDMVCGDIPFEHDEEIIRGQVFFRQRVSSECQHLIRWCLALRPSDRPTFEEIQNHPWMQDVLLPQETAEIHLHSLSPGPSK
Experimental: as §1, §2, §3, §4, §5, §6

EphB4 kinase (h) = EphB4 kinase (h) (Homo sapiens (Human), UniProt P54760); assay: Kinase selectivity panel: EphB4 kinase (h); conditions: 10 μM in duplicate, read-out: % inhibition of control values
Experimental: as §1, §2, §3, §4, §5, §6

MSK1 (h) = MSK1 (h) (Homo sapiens (Human), UniProt O75582); assay: Kinase selectivity panel: MSK1 (h); conditions: 10 μM in duplicate, read-out: % inhibition of control values
Experimental: as §1, §2, §3, §4, §5, §6

MAPKAPK2 (h) = MAPKAPK2 (h) (Homo sapiens (Human), UniProt P49137); assay: Kinase selectivity panel: MAPKAPK2 (h); conditions: 10 μM in duplicate, read-out: % inhibition of control values
Experimental: as §1, §2, §3, §4, §5, §6

JAK1 (h) = JAK1 (h) (Homo sapiens (Human), UniProt P23458); assay: Kinase selectivity panel: JAK1 (h); conditions: 10 μM in duplicate, read-out: % inhibition of control values
Chain of JAK1 (h) (P23458 whole entry): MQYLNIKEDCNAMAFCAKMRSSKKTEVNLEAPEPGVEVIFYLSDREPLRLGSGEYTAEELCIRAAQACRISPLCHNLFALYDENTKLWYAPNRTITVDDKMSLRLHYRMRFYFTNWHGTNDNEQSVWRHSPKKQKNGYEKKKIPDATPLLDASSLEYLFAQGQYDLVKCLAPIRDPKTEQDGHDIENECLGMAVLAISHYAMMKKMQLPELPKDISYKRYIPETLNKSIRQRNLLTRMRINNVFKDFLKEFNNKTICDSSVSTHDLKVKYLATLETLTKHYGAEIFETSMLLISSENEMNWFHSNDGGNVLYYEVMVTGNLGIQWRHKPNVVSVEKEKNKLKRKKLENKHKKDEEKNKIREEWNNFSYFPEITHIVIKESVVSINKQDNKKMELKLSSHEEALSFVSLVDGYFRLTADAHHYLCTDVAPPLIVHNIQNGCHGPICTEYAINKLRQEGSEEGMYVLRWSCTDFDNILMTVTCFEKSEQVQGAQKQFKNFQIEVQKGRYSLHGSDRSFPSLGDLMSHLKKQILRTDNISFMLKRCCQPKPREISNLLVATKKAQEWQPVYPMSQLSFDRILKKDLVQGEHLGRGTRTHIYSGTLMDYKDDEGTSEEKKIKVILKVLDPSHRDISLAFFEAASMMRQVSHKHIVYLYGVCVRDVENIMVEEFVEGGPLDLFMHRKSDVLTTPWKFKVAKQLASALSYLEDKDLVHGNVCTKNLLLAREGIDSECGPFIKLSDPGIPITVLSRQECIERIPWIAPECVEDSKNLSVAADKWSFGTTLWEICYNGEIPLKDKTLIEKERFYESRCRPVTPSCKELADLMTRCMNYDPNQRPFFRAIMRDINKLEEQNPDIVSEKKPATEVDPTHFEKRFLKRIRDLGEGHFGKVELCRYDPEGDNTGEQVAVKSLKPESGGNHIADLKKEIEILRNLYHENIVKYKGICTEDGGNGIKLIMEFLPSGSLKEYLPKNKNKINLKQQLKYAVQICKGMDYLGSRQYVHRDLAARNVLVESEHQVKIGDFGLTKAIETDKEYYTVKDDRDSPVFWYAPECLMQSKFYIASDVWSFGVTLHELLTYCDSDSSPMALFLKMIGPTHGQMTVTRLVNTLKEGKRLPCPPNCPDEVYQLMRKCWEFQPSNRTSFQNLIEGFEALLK
Experimental: as §1, §2, §3, §4, §5, §6

IRK (h) (InsR) = IRK (h) (InsR) (Homo sapiens (Human), UniProt P06213); assay: Kinase selectivity panel: IRK (h) (InsR); conditions: 10 μM in duplicate, read-out: % inhibition of control values
Experimental: as §1, §2, §3, §4, §5, §6

Compound	inhibition at 10 µM (ERK2 (h) (P42mapk)) [%]	inhibition at 10 µM (EphB2 kinase (h)) [%]	inhibition at 10 µM (RSK2 (h)) [%]	inhibition at 10 µM (PKA (h)) [%]	inhibition at 10 µM (IRAK4 (h)) [%]	inhibition at 10 µM (TRKA (h)) [%]	inhibition at 10 µM (DCAMKL1 (h)) [%]	inhibition at 10 µM (ERK1 (h)) [%]	inhibition at 10 µM (c-Met kinase (h)) [%]	inhibition at 10 µM (TAOK2 (TAO1) (h)) [%]	inhibition at 10 µM (Abl kinase (h)) [%]	inhibition at 10 µM (AurA/Aur2 kinase (h)) [%]	inhibition at 10 µM (GRK3/BARK2 (h) (ADRBK2)) [%]	inhibition at 10 µM (Akt1/PKBalpha (h)) [%]	inhibition at 10 µM (PKCalpha (h)) [%]	inhibition at 10 µM (CK1alpha (h)) [%]	inhibition at 10 µM (Pim1 kinase (h)) [%]	inhibition at 10 µM (EphB4 kinase (h)) [%]	inhibition at 10 µM (MAPKAPK2 (h)) [%]	inhibition at 10 µM (JAK1 (h)) [%]	also measured
COCCN1CCC(CNC(=O)c2n[nH]c3ccc(OC)cc23)CC1 [Compound 2, 5-methoxy-N-{[1-(2-methoxyethyl)-piperidin-4-yl]methyl}-1H-indazole-3-carboxamide]	46	7	1	2	8	0	3	15	0	26	0	1	0	4	0	12	2	17	0	0	inhibition at 10 µM (smMLCK (h) (MYLK)): 8%; inhibition at 10 µM (NEK1 (h)): 0%; inhibition at 10 µM (human GSK-3β): 85%; IC50 (human GSK-3β): 870 nM; inhibition at 10 µM (MEK1/MAP2K1 (h)): 9%; inhibition at 10 µM (p38gamma kinase (h)): 0%; inhibition at 10 µM (mTOR kinase (h) (FRAP1)): 2%; inhibition at 10 µM (MSK1 (h)): 16%; inhibition at 10 µM (IRK (h) (InsR)): 0%
COc1ccc2[nH]nc(C(=O)NCC3CCN(CC(=O)O)CC3)c2c1 [Compound 1, [4-({[(5-methoxy-1H-indazol-3-yl)-carbonyl]amino}methyl)piperidin-1-yl]acetic acid]	58	4	0	0	0	1	0	20	3	3	0	7	0	0	0	0	0	2	0	0	inhibition at 10 µM (smMLCK (h) (MYLK)): 0%; inhibition at 10 µM (NEK1 (h)): 0%; inhibition at 10 µM (human GSK-3β): 92%; IC50 (human GSK-3β): 670 nM; inhibition at 10 µM (MEK1/MAP2K1 (h)): 24%; inhibition at 10 µM (p38gamma kinase (h)): 0%; inhibition at 10 µM (mTOR kinase (h) (FRAP1)): 2%; inhibition at 10 µM (MSK1 (h)): 7%; inhibition at 10 µM (IRK (h) (InsR)): 0%
COc1ccc2[nH]nc(C(=O)NCC3CCN(CCC(=O)O)CC3)c2c1 [Compound 3]	34	0	4	0	0	0	0	19	0	0	0	4	0	0	5	0	12	0	0	4	inhibition at 10 µM (human GSK-3β): 94%; inhibition at 10 µM (IRK (h) (InsR)): 0%
COCCN1CCC(CNC(=O)c2n[nH]c3ccc(-c4cccc(F)c4F)cc23)CC1 [Compound 8, 5-(2,3-difluorophenyl)-N-{[1-(2-methoxyethyl)piperidin-4-yl]methyl}-1H-indazole-3-carboxamide]	74	2	4	0	0	14	0	66	7	79	0	10	8	0	19	6	17	0	17	7	inhibition at 10 µM (IRK (h) (InsR)): 9%
